According to a melting point compilation (Tetko et al.):

| melting point [°C] | SMILES |
| --- | --- |
| 199 to 201 | COC1(OC)C2C=C3OC(=O)C1C3(C)O2 (stereo unspecified) |
| 218 | CC(=NNC(N)=O)c1ccncc1 |
| 38 | COc1ncc(F)cc1F |
| 110 to 113 | NC(=S)c1cccc(Cl)c1 |
| 111 | NC(=S)NCCCc1ccccc1 |
| 88 | O=C(OCC(=O)N1CCCCC1)c1ccccc1 |
| 151 to 153 | Cc1n[nH]c(SCc2ccc(Cl)cc2)n1 |
| 360 | O=[N+]([O-])c1ccc2c(c1)=NC(=c1ccc(=C3N=c4cc([N+](=O)[O-])ccc4=C3O)cc1)C=2O |
| 124 to 125 | Nc1cc(Cl)cnc1Cl |
| 165 to 167 | O=Cc1c(Cl)ccc([N+](=O)[O-])c1Cl |
| 252 | CC1C(=O)C23C4CC5C(C)(C)CCC(=O)C56COC(CC1C2OC(C)(C)O4)C63 (stereo unspecified) |
| 142 to 143 | CCOC(=O)c1c(SC)n[nH]c1N |
| 73.5 | O=C(OCCOC(=O)c1ccccc1)c1ccccc1 |
| 47 | O=c1occc2ccccc12 |
| 262 | Cc1cc(=O)n(N)c(=S)[nH]1 |
| 144 | ClC(=C(Cl)c1ccccc1)c1ccccc1 |
| 270 to 273 | NC1=C(c2ccccc2)C(=O)c2ccccc21 |
| 164 to 165 | COC(=O)[C@@H]1[C@H](c2ccccc2)C(C#N)=C(C(SC)SC)[C@@]1(O)c1ccccc1 |
| 97 | CC(=O)/C(=C\N)c1ccccc1 |
| 37 | CCCC(=O)c1ccc(F)cc1 |
| 120 to 123 | Cc1cc(O)c(C(=O)CC(=O)c2ccccc2)cc1Cl |

| melting point [°C] | SMILES |
| --- | --- |
| 95 | O=C(Nc1ccc(Br)cc1Br)C(F)(F)C(F)(F)C(F)(F)C(F)(F)C(F)(F)C(F)(F)C(F)(F)C(F)(F)F |
| 208 | O=C1OC(c2ccccc2)=NC1=Cc1ccc(-c2ccc([N+](=O)[O-])cc2)o1 |
| 118 | COc1c(Br)ccc2c1C(=O)C2 |
| 130 | Cc1cc(C(F)(F)F)cc(=O)[nH]1 |
| 45.5 | CCCCOc1ccc(OCCCC)cc1 |
| -15 | CCCCCCCCCCOC(C)=O |
| 113 | CN(C)c1ccc(C(O)(c2ccccc2)c2ccc(N(C)C)cc2)cc1 |
| 270 to 271 | C1=CC2=CC=C(O2)C2=CC=C(C=CC3=CC=C(O3)C3=CC=C1O3)O2 |
| 111 | COC(=O)C(C)(C)C(CC(=O)O)c1ccccc1 (stereo unspecified) |
| 115 to 117 | O=C1C=CC(=O)N1c1cccnc1Cl |
| 96 to 97 | Ic1cccc2nsnc12 |
| 189 | CCOC(=O)C1=C(C)NC(=O)NC1c1ccc2c(c1)OCO2 (stereo unspecified) |
| 222 to 223 | Cc1ccc2sc(C(=O)O)cc2c1 |
| 58 to 60 | OCC(F)(F)C(F)(F)C(F)(F)C(F)(F)C(F)(F)C(F)(F)C(F)(F)C(F)F |
| 120 | COC(=O)c1cc(C)[nH]c1C |
| 31 to 33 | COc1ccc2occc2c1 |
| 194 to 195 | CSC(=Nc1nccs1)SC |
| 139 | O=C(O)COc1ccc(Cl)c(Cl)c1 |
| 247 | O=C1OC(c2ccccc2)=N/C1=C\c1cccc(/C=C2\N=C(c3ccccc3)OC2=O)c1 |
| 63 | CC(C=CC=C(C)C=CC1=C(C)CCCC1(C)C)=CC=O |
| 78 | CC(C)c1ccc(O)c(O)c1 |

| SMILES | melting point [°C] |
| --- | --- |
| O=[N+]([O-])c1cc(C(F)(F)F)cc([N+](=O)[O-])c1O | 47 to 48 |
| ClC1CCCCC1Cl (stereo unspecified) | -1.5 |
| NCCc1c[nH]c2ccc(O)cc12 | 168 |
| C/C=C/C#N | -51.5 |
| O=C(CCl)c1cc(Br)c(Cl)s1 | 77 to 78 |
| CCC(=O)OC1CCC2C3CCC4CC(=O)C(C)CC4(C)C3CCC12C (stereo unspecified) | 128 |
| ClC1=C(Cl)C2(Cl)C(CBr)CC1(Cl)C2(Cl)Cl (stereo unspecified) | 77 |
| Cc1cccc(C)c1NC(N)=S | 195 |
| CN(C)c1ccc(C=C2C(=O)NC(=O)NC2=O)cc1 | 245 |
